The text below walks through data of patent US20220125051A1, “PRE-HARVEST DESICCATION METHOD” (SYNGENTA CROP PROTECTION AG, priority 2019, published 2022).

Holding throughout (type): in vivo
Assay [1] deals with Amaranthus palmeri (AMAPA). Briefly: Post-emergence efficacy, Method C. The settings on record: 400 g/Ha, evaluated at 21 days, 100=total damage to plant, 0=no damage. The procedure: (§1) An “instant formulation”, known as the IF50, containing 50 g/L of the “technical” (i.e. unformulated) active ingredient was prepared by dissolving the active ingredient in a mixture of organic solvents and emulsifier, details of which are provided in the table. This IF50 was then mixed with a small, variable amount of acetone to aid dissolution, before addition of a 1% v/v aqueous solution in water of the adjuvant Empicol ESC70 3EO (Sodium lauryl ether sulphate) and 1% v/v Ammonium sulphate, as the aqueous diluent, to form an aqueous spray solution which contains a predetermined concentration of the active ingredient (which varies depending on the application rate of the active ingredient to the plants).
(§2) The composition of the mixture of organic solvents and emulsifier used as a base for the instant formulation was as given above in Table IF.
(§3) This aqueous spray solution was then sprayed onto the plants after about 21 days of cultivation. The plants were grown from seeds sown in standard soil, placed in a glasshouse under controlled conditions (at 24/18° C., day/night; 14 hours light; 65% humidity). After spray application the plants were then grown on in a glasshouse under the same conditions and watered twice daily. The test was evaluated at 21 days (100=total damage to plant; 0=no damage to plant).
(§4) Ipomoea hederacea (IPOHE), Amaranthus palmeri (AMAPA), Lolium perenne (LOLPE), Eleusine indica (ELEIN), Echinochloa crus-gaffi (ECHCG), Conyza canadensis (ERICA)

In assay [2] the test system is Conyza canadensis (ERICA). Nature of the assay: Post-emergence efficacy, Method C. Particulars: 400 g/Ha, evaluated at 21 days, 100=total damage to plant, 0=no damage. The procedure:
as §1, §2, §3, §4

The subject of assay [3] is Echinochloa crus-gaffi (ECHCG). Nature of the assay: Post-emergence efficacy, Method C. The settings on record: 400 g/Ha, evaluated at 21 days, 100=total damage to plant, 0=no damage. The procedure:
as §1, §2, §3, §4

Assay [4] relates to Eleusine indica (ELEIN). Nature of the assay: Post-emergence efficacy, Method C. Particulars: 400 g/Ha, evaluated at 21 days, 100=total damage to plant, 0=no damage. The procedure:
as §1, §2, §3, §4

The subject of assay [5] is Ipomoea hederacea (IPOHE). Briefly: Post-emergence efficacy, Method C. Particulars: 400 g/Ha, evaluated at 21 days, 100=total damage to plant, 0=no damage. The procedure:
as §1, §2, §3, §4

Assay [6] relates to Lolium perenne (LOLPE). Nature of the assay: Post-emergence efficacy, Method C. The settings on record: 400 g/Ha, evaluated at 21 days, 100=total damage to plant, 0=no damage. The procedure:
as §1, §2, §3, §4

Assay [7] relates to Amaranthus retroflexus (AMARE). Briefly: Post-emergence efficacy, Method B. The settings on record: read-out: Control of weed species after post-emergence application, AMARE. The procedure:
(§5) An “instant formulation”, known as the IF50, containing 50 g/L of the “technical” (i.e. unformulated) active ingredient was prepared by dissolving the active ingredient in a mixture of organic solvents and emulsifier, details of which are provided in the table. This IF50 was then mixed with a small, variable amount of acetone to aid dissolution, before addition of an aqueous solution of 1% v/v ammonium sulphate+1% v/v Empicol ESC70 (Sodium lauryl ether sulphate) adjuvant, as the aqueous diluent, to form an aqueous spray solution which contains a predetermined concentration of the active ingredient (which varies depending on the application rate of the active ingredient to the plants).
(§6) This aqueous spray solution was then sprayed onto the plants, after about 12 days' cultivation. The plants were grown from seeds sown in standard soil, placed in a glasshouse under controlled conditions (at 24/18° C. or 20/16° C., day/night; 16 hours light; 65% humidity). After spray application the plants were then grown on in a glasshouse under the same conditions and watered twice daily. […] the test was evaluated (100=total damage to plant; 0=no damage to plant).
(§7) Ipomoea hederacea (IPOHE), Euphorbia heterophylla (EPHHL), Chenopodium album (CHEAL), Amaranthus retroflexus (AMARE), Lolium perenne (LOLPE), Digitaria sanguinalis (DIGSA), Eleusine indica (ELEIN), Echinochloa crus-galli (ECHCG), Setaria faberi (SETFA)

In assay [8] the test system is Chenopodium album (CHEAL). Briefly: Post-emergence efficacy, Method B. The settings on record: read-out: Control of weed species after post-emergence application, CHEAL. The procedure:
as §5, §6, §7

The test system of assay [9] is Digitaria sanguinalis (DIGSA). Briefly: Post-emergence efficacy, Method B. Particulars: read-out: Control of weed species after post-emergence application, DIGSA. The procedure: as §5, §6, §7
Assay [10] relates to Echinochloa crus-galli (ECHCG). Briefly: Post-emergence efficacy, Method B. Particulars: read-out: Control of weed species after post-emergence application, ECHCG. The procedure: as §5, §6, §7
For assay [11], the system named is Eleusine indica (ELEIN). Nature of the assay: Post-emergence efficacy, Method B. Particulars: read-out: Control of weed species after post-emergence application, ELEIN. The procedure:
as §5, §6, §7

In assay [12] the test system is Euphorbia heterophylla (EPHHL). Briefly: Post-emergence efficacy, Method B. Particulars: read-out: Control of weed species after post-emergence application, EPHHL. The procedure:
as §5, §6, §7

In assay [13] the test system is Ipomoea hederacea (IPOHE). Nature of the assay: Post-emergence efficacy, Method B. The settings on record: read-out: Control of weed species after post-emergence application, IPOHE. The procedure:
as §5, §6, §7

Assay [14] deals with Lolium perenne (LOLPE). Nature of the assay: Post-emergence efficacy, Method B. The settings on record: read-out: Control of weed species after post-emergence application, LOLPE. The procedure: as §5, §6, §7
Assay [15] deals with Setaria faberi (SETFA). Briefly: Post-emergence efficacy, Method B. Particulars: read-out: Control of weed species after post-emergence application, SETFA. The procedure:
as §5, §6, §7

Assay [16] relates to Brassica napus (BRSNN). Briefly: Pre-harvest desiccation of crop plants. The settings on record: evaluated after 7 and 14 days (which not stated), 100=total damage to plant, 0=no damage; for Post-emergence dessication efficacy, BRSNN: Table E; for Post emergence dessication efficacy, BRSNN: Table F. The procedure: (§8) Seeds of a variety of test species were sown in standard loam based soil in pots. After cultivation from between 21 and 28 days (post-emergence) under controlled conditions in a glasshouse (at 24/16° C., day/night; 14 hours light; 65% humidity) for warm climate species and (at 20/16° C. day/night; 15 hours light; 65% humidity) for cool climate species.
(§9) The plants were sprayed with an aqueous spray solution derived from dissolving the technical active ingredient formula in a small amount of acetone and a special solvent and emulsifier mixture referred to as IF50 (11.12% Emulsogen EL360 TM+44.44% N-methylpyrrolidone+44.44% Dowanol DPM glycol ether), to create a 50 g/I solution which was then diluted to required concentration using a solution of 1% Empicol ESC70 (Sodium lauryl ether sulphate)+1% ammonium sulphate in water as diluent.
(§10) The delivery of the aqueous spray solution was via a laboratory track sprayer which delivered the aqueous spray composition at a rate of 200 litres per hectare, using a flat fan nozzle (Teejet 11002VS) and an application volume of 200 litre/ha (at 2 bar).
(§11) The test plants were then grown in a glasshouse under controlled conditions (at 24/16° C., day/night; 14 hours light; 65% humidity) for warm climate species and (at 20/16° C. day/night; 15 hours light; 65% humidity) for cool climate species and watered twice daily. After 7 and 14 days the test was evaluated (100=total damage to plant; 0=no damage to plant).
(§12) A value of n/t indicates not tested.
(§13) Glycine Max (GLXMA), Solanum turberosum (SOLTU), Gossypium hirsutum (GOSHI), Brassica napus (BRSNN), Helianthus annus (HELAN)

In assay [17] the test system is Glycine Max (GLXMA). Nature of the assay: Pre-harvest desiccation of crop plants. The settings on record: evaluated after 7 and 14 days (which not stated), 100=total damage to plant, 0=no damage; for Post-emergence dessication efficacy, GLXMA: Table E; for Post emergence dessication efficacy, GLXMA: Table F. The procedure: as §8, §9, §10, §11, §12, §13
The subject of assay [18] is Gossypium hirsutum (GOSHI). Nature of the assay: Pre-harvest desiccation of crop plants. Particulars: Table E, evaluated after 7 and 14 days (which not stated), 100=total damage to plant, 0=no damage. The procedure: as §8, §9, §10, §11, §12, §13
Assay [19] deals with Solanum turberosum (SOLTU). Nature of the assay: Pre-harvest desiccation of crop plants. Particulars: Table E, evaluated after 7 and 14 days (which not stated), 100=total damage to plant, 0=no damage. The procedure: as §8, §9, §10, §11, §12, §13
The test system of assay [20] is Helianthus annus (HELAN). Briefly: Pre-harvest desiccation of crop plants. Particulars: Table F, evaluated after 7 and 14 days (which not stated), 100=total damage to plant, 0=no damage. The procedure: as §8, §9, §10, §11, §12, §13

Several values for one entry are separate records, joined by “and”; a condition that tells them apart may be missing. Identical values can stand only once.

Consider `O=S(=O)([O-])C[n+]1ccc(-c2ncccn2)cn1` [Compound A3, (4-pyrimidin-2-ylpyridazin-1-ium-1-yl)methanesulfonate], for which the “Control of weed species after post-emergence application, AMAPA” value in assay [1] was found to be 65. Besides, the “Control of weed species after post-emergence application, ERICA” value in [2] is 100. Further, in assay [3], the “Control of weed species after post-emergence application, ECHCG” value was 13. In addition, the “Control of weed species after post-emergence application, ELEIN” value in assay [4] is 15. Further, in [5], the “Control of weed species after post-emergence application, IPOHE” value was determined as 83. In assay [6], the “Control of weed species after post-emergence application, LOLPE” value is 25.

For the compound `Cl.O=S(=O)([O-])CC[n+]1ccc(-c2ccncc2)cn1` [Compound A27], in [1], the “Control of weed species after post-emergence application, AMAPA” value came out at 77. Also, the “Control of weed species after post-emergence application, ERICA” value in assay [2] was determined as 65. For the same compound, the “Control of weed species after post-emergence application, ECHCG” value in [3] is on record as 43. For the same compound, the “Control of weed species after post-emergence application, ELEIN” value in [4] worked out at 80. The “Control of weed species after post-emergence application, IPOHE” value in [5] is reported as 90. For the same compound, the “Control of weed species after post-emergence application, LOLPE” value in assay [6] is reported as 68.

For `O=C(O)CC[n+]1ccc(-c2ccncn2)cn1.[Cl-]` [Compound A28], the pest or weed control at 1000 g/ha in assay [7] was determined as 100%; in assay [8] it was 90%; in assay [9], 100%; in [10] it was 100%; in assay [11], 100%; in assay [12], 100%. Also, the pest or weed control at 1000 g/ha turned out to be 100% in [13], 70% in assay [14] and 40% in [15]. For the same compound, the “Post-emergence dessication efficacy, BRSNN” value in [16] (150 g/Ha) is listed as 97; in assay [16] (300 g/Ha), 100; in assay [16] (600 g/Ha), 100. Also, the “Post-emergence dessication efficacy, GLXMA” value in [17] (150 g/Ha) was determined as 93; in assay [17] (300 g/Ha), 99; in assay [17] (600 g/Ha), 99. Besides, the “Post-emergence dessication efficacy, GOSHI” value in assay [18] (150 g/Ha), in assay [18] (300 g/Ha) and in assay [18] (600 g/Ha) was 100 each time. For the same compound, the “Post-emergence dessication efficacy, SOLTU” value in assay [19] (150 g/Ha), in [19] (300 g/Ha) and in [19] (600 g/Ha) was 100 each time.

On to `O=C(O)CC[n+]1ccc(-c2cccnn2)cn1.[Cl-]` [Compound A138, 3-(4-pyridazin-3-ylpyridazin-1-ium-1-yl)propanoic acid chloride], for which the pest or weed control at 1000 g/ha in assay [7], in [8], in [9], in assay [10], in assay [11] and in [12] was 100% each time. Also, the pest or weed control at 1000 g/ha in assay [13] was 40%; in assay [14] it was 100%; in assay [15] it was 100%. The “Post emergence dessication efficacy, BRSNN” value in assay [16] (150 g/Ha) was 63 and 98; in [16] (600 g/Ha) it was 96 and 100. Besides, the “Post emergence dessication efficacy, GLXMA” value in [17] (50 g/Ha) was 57 and 37; in [17] (150 g/Ha) it was 67 and 72; in assay [17] (600 g/Ha), 82 and 90. Besides, the “Post emergence dessication efficacy, HELAN” value in assay [20] (50 g/Ha), in [20] (150 g/Ha) and in [20] (600 g/Ha) was 100 each time.
